Common to all, as to type: cell-based
One data set concerns rhinovirus type 8 (RV-8). The data set is described as follows: Tissue culture antiviral test (HeLa cells), RV-8. The note with it: Enterovirus, 48 and 72 hours post-treatment, read-out: Lowest concentration necessary to cause a 50 percent reduction in cytopathic effect, RV-8. On the procedure:
(§1) Monolayered HeLa cells in 16 millimeter (mm) tissue culture dishes were treated with 1 ml of culture medium (Eagles medium supplemented with fetal calf serum) containing subject compound at an appropriate concentration or containing no compound at all. Culture media such as those described herein are more fully described in standard texts, as for example, Kuchler's Biochemical Methods in Cell Culture and Virology, Dowden, Hutchinson and Ross, Inc., Stroudsberg, PA (1977). Following treatment, cells were challenged with 0.05 ml of rhinovirus type 1A (RV-1A), rhinovirus type 2 (RV-2) or Coxsackie A21 virus (Cox A21) in culture medium. Some of the compounds were also tested against rhinovirus type 5 (RV-5), rhinovirus type 8 (RV-8) or rhinovirus type 64 (RV-64). Cell controls received no viruses.
(§2) ^xx Lowest concentration of the compound (μg/ml) necessary to caus
(§3) a 50 percent reduction in cytopathic effect.
Background: Damage to the host cells serves as the signal in cytopathic effect assays.

Data set [1] has as its system rhinovirus type 1A (RV-1A). The data set is described as follows: Tissue culture antiviral test (HeLa cells), RV-1A. The settings on record: Enterovirus, 48 and 72 hours post-treatment, read-out: Lowest concentration necessary to cause a 50 percent reduction in cytopathic effect, RV-1A. On the procedure: as §1, §2, §3
The test system of data set [2] is Coxsackie A21 virus (Cox A21). The data set is described as follows: Tissue culture antiviral test (HeLa cells), Cox A21. The note with it: 48 and 72 hours post-treatment, read-out: Lowest concentration necessary to cause a 50 percent reduction in cytopathic effect, Cox A21. On the procedure:
as §1, §2, §3

Data set [3] in a line: Cytotoxicity to HeLa cells in tissue culture testing. The note with it: human, concentration found to be toxic to the cell, observed at 48 and 72 hours, read-out: Cytotoxicity. On the procedure:
as §1
^x Cytotoxicity figures represent the concentration of the compound,
micrograms/milliliter (μg/ml) found to be toxic to the cell.
means "approximately "; "<<" "considerably less than " and "G.I." means

The next data set concerns rhinovirus type 5 (RV-5). In words: Tissue culture antiviral test (HeLa cells), RV-5. The settings on record: Enterovirus, 48 and 72 hours post-treatment, read-out: Lowest concentration necessary to cause a 50 percent reduction in cytopathic effect, RV-5. On the procedure: as §1, §2, §3
The next data set has as its system rhinovirus type 2 (RV-2). The data set is described as follows: Tissue culture antiviral test (HeLa cells), RV-2. The settings on record: Enterovirus, 48 and 72 hours post-treatment, read-out: Lowest concentration necessary to cause a 50 percent reduction in cytopathic effect, RV-2. As for the experimental part:
as §1, §2, §3

For data set [4], the system named is rhinovirus type 64 (RV-64). In words: Tissue culture antiviral test (HeLa cells), RV-64. The settings on record: Enterovirus, 48 and 72 hours post-treatment, read-out: Lowest concentration necessary to cause a 50 percent reduction in cytopathic effect, RV-64. On the procedure: as §1, §2, §3

In brackets after ≈: the same amount, converted by molar mass.

As to `CS(=O)(=O)c1ccc(Oc2ccc(C#N)cc2)cc1` [Example 8, 4-(4-(Methylsulfonyl)phenoxy)benzonitrile], the EC50 was 25 µg/mL (≈ 91.5 µM) with rhinovirus type 8 (RV-8); 12.5 µg/mL (≈ 45.7 µM) in data set [1]; below 6.25 µg/mL in data set [2]; 12.5 µg/mL (≈ 45.7 µM) with rhinovirus type 5 (RV-5); 12.5 µg/mL (≈ 45.7 µM) with rhinovirus type 2 (RV-2); 12.5 µg/mL (≈ 45.7 µM) in data set [4]. In data set [3], the MCC stood at 50 µg/mL.

For the origin of these results see patent publication US4505929A, “Sulfur-substituted diphenyl ethers having antiviral activity” (The Dow Chemical Company, priority 1982, dated 1985).
